Substitutions are numbered along the chain they refer to.
Assays:
human CRF1 = biological target: T1, human CRF1 (Homo sapiens, UniProt P34998); test: CRF1 filter binding assay; settings: HEK-hCRF1 membranes; 125I-Sauvagine (4 nM) in roller/adherent cells; read-out: Ki (inhibition constant), inhibition of binding of 125I-Sauvagine
T1 construct: expressed in transfected cells
T1 sequence (P34998 24-415): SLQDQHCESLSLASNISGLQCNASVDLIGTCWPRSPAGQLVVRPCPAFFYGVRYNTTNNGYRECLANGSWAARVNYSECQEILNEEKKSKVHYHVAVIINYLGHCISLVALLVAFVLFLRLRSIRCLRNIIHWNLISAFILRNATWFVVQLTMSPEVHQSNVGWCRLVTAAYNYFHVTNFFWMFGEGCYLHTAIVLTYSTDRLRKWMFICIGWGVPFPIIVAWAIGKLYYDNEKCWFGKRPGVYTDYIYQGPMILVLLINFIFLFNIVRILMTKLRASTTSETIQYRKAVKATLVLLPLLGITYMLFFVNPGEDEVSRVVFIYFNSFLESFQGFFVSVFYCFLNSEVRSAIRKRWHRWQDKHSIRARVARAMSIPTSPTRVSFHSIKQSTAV
Experimental: The limitations of plasmid-based human CRF1 expression, in terms of generating a recombinant cell line with sufficient receptor density to develop a binding assay, are overcome by using a Phoenix retroviral expression system licensed from Stanford. The stable HEK-hCRF1 cell line is used to prepare membranes and binding reactions (200 μl) are set up as follows: 50 μl of ^125I-sauvagine (0.2 nM final), 50 μl compound and 100 μl CRF1 membrane (25 μg/reaction). The reactions are incubated at room temperature for 2 hours and then terminated by filtration through pre-treated FB Millipore glass fiber filter plates (96 well). The plates are wash twice with ice-cold assay buffer (50 mM tris, 12.5 mM NaCl, 1 mM EDTA, 10 mM MgCl2, 0.05% BSA, pH 7.2), air dried over night and counted with 100 μl Microscint 40 in a MicroBeta counter. Non-specific binding (NSB) is determined in the presence of 0.5 μM non-labeled sauvagine. Triplicate determinations are typically run and the median data points plotted by Graph Pad Prism.
Using this assay, the exemplified compounds of the present invention (except for Examples 2, 3, 6, 7, and 8, which were used as intermediates for other Examples and were not tested.) inhibit the binding of ^125I-Sauvagine (4 nM) in roller/adherent cells with a Ki (inhibition constant)≦500 nM.

[1] = biological target: T2, binding of 125I-sauvagine to the cerebellum (Rattus norvegicus, UniProt P35353); test: In vivo potency assessment using ex vivo binding; settings: oral route
T2 construct: from tissue; host or cells: rat cerebellum
T2 sequence (P35353 24-415): T1 sequence (P34998 24-415) with H6R, S9N, A13T, I16V, M153V, G163A, I209V, Y229H, H356R
Experimental: To assess in vivo potency, a compound of the present invention is evaluated using ex vivo binding. Using the procedures as provided in D. R. Gehlert et al., EJP 509: 145-153 (2005), a compound is administered to a rat via the oral route.

human CRF2 = biological target: T3, human CRF2 (Homo sapiens, UniProt Q13324); test: CRF2 filter binding assay; settings: HEK-hCRF2 membranes; compound concentration 50 μM
T3 construct: expressed in transfected cells
T3 sequence (Q13324 1-411): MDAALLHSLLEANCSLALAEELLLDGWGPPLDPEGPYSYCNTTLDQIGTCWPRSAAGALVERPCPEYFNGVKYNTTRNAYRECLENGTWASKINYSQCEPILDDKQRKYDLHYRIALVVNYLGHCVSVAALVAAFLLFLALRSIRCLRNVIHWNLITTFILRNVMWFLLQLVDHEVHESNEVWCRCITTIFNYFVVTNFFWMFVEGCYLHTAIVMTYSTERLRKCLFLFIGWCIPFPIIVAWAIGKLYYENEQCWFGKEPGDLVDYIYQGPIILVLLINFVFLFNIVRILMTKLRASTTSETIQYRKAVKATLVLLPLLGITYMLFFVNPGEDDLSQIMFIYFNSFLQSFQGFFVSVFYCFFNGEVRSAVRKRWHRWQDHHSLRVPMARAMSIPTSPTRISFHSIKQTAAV
Experimental: The limitations of plasmid-based human CRF2 expression, in terms of generating a recombinant cell line with sufficient receptor density to develop a binding assay, are overcome by using a Phoenix retroviral expression system licensed from Stanford. The stable HEK-hCRF2 cell line is used to prepare membranes and binding reactions (200 μl) are set up as follows: 50 ul of ^125I-sauvagine (0.2 nM final concentration), 50 μl compound and 100 μl CRF2 membrane (25 μg/reaction). The reactions are incubated at room temperature for 2 hours and then terminated by filtration through pre-treated FB Millipore glass fiber filter plates (96 well). The plates are washed twice with ice-cold assay buffer (50 mM tris, 12.5 mM NaCl, 1 mM EDTA, 10 mM MgCl2, 0.05% BSA, pH 7.2), air dried over night and counted with 100 μl Microscint 40 in a MicroBeta counter. Non-specific binding (NSB) is determined in the presence of 0.5 μM non-labeled sauvagine. Alternatively, compounds are evaluated using a Scintillation Proximity assay. […] Bound radioactivity is assessed using a Wallac Trilux scintillation counter. Binding is assessed typically using triplicate determinations and the median data points plotted by Graph Pad Prism. […]

Ki (human CRF1): 4.4 nM
inhibition at 10 mg/kg [1]: 74%
inhibition at 50 µM (human CRF2): 39%
SMILES: CCCC(CCC)c1cc(C)nc2c(-c3sc(-c4ncnn4C)cc3Cl)c(C)nn12 [Example 20, 3-[3-Chloro-5-(2-methyl-2H-[1,2,4]triazole-3-yl)-thiophene-2-yl]-7-(1-propyl-butyl)-2,5-dimethyl-pyrazolo[1,5-a]pyrimidine]

From patent publication US8110580B2, “Thiophene pyrazolopyrimidine compounds” (Eli Lilly and Company, priority 2006, dated 2012)
